Where two headings read alike, the source gives them in different places.

In the experiment the test system is primary rat mixed cortical cells. Description: In vitro myelination assay (MBP positive myelin strands, fold myelin pixels above background). Type of experiment: cell-based. The following applies: Rattus norvegicus; for fold induction at 1 µM: 1.0 μM compound; for fold induction at 10 µM: 10.0 μM compound. An outline of the steps: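 Myelination read as total MBP-immunopositive strand pixels per well, imaged at 10× after fixation on day 14 and expressed relative to untreated wells, at 1.0 and 10.0 μM. Cells: dissociated postnatal day 1 rat cortex, cultured two weeks with compound, re-dosed at days 6 and 10.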

The mark [1] stands for this setting: read-out: Fold myelin pixels above background relative to baseline of no added compound.
[2] abbreviates: relative to baseline of no added compound, read-out: Fold myelin pixels above background, 1.0 μM.
[3] abbreviates: relative to baseline of no added compound, read-out: Fold myelin pixels above background, 10.0 μM.
Where [4] appears, read: relative to baseline of no added compound, read-out: Fold myelin pixels above background.

Take `CCC1COC(C)CN1CCNc1cc(C)cc(Nc2ncn(-c3cc(F)cc(F)c3)n2)c1` (stereo not drawn) [Compound 974, N3-[1-(3,5-difluorophenyl)-1,2,4-triazol-3-yl]-N1-[2-(5-ethyl-2-methyl-morpholin-4-yl)ethyl]-5-methyl-benzene-1,3-diamine]: under setting [1], the fold induction at 1 µM is 10 to 100 and the fold induction at 10 µM was no more than 1.

Consider `Cc1cc(Nc2ncn(-c3cc(F)cc(F)c3)n2)cc(N2CCOC(C3CCCO3)C2)c1` (stereo not drawn) [Compound 888, 1-(3,5-difluorophenyl)-N-[3-methyl-5-(2-tetrahydrofuran-2-ylmorpholin-4-yl)phenyl]-1,2,4-triazol-3-amine], for which, under setting [1], the fold induction at 1 µM was 1 to 10 and the fold induction at 10 µM is 1 to 10.

As for `COCCCCN1CCN(c2cc(C)cc(Nc3ncn(-c4cc(F)cc(F)c4)n3)c2)CC1` [Compound 1001, 1-(3,5-difluorophenyl)-N-[3-[4-(4-methoxybutyl)piperazin-1-yl]-5-methyl-phenyl]-1,2,4-triazol-3-amine], under setting [1], the fold induction at 1 µM fell in the range of 10 to 100 and the fold induction at 10 µM lay in the range of 1 to 10.

For the compound `Cc1cc(Nc2ncn(-c3cc(F)cc(F)c3)n2)cc(C2COC2)c1` [Compound 131, 1-(3,5-difluorophenyl)-N-[3-methyl-5-(oxetan-3-yl)phenyl]-1,2,4-triazol-3-amine], the fold induction at 1 µM under setting [2] fell in the range of 10 to 100. Further, under setting [3], the fold induction at 10 µM fell in the range of 1000 to 10000.

Regarding `Cc1cc(Nc2ncn(-c3ccccc3)n2)cc(C2CCN(C)CC2)c1` [Compound 333, N-[3-methyl-5-(1-methyl-4-piperidyl)phenyl]-1-phenyl-1,2,4-triazol-3-amine], the fold induction at 1 µM under setting [2] fell in the range of 1000 to 10000. Moreover, the fold induction at 10 µM under setting [3] was no more than 1.

In the case of `Cc1cc(NCC2CN(C(CO)CO)C2)cc(Nc2ncn(-c3cc(F)cc(F)c3)n2)c1` [Compound 946, 2-[3-[[3-[[1-(3,5-difluorophenyl)-1,2,4-triazol-3-yl]amino]-5-methyl-anilino]methyl]azetidin-1-yl]propane-1,3-diol], under setting [1], the fold induction at 1 µM was no more than 1 and the fold induction at 10 µM was no more than 1.

For `CCNC(=O)N1CCN(c2cc(C(F)(F)F)cc(Nc3ncn(-c4cc(F)cc(F)c4)n3)n2)CC1` [Compound 554, 4-[6-[[1-(3,5-difluorophenyl)-1,2,4-triazol-3-yl]amino]-4-(trifluoromethyl)-2-pyridyl]-N-ethyl-piperazine-1-carboxamide], under setting [4], the fold induction at 1 µM lay within 10 to 100 and the fold induction at 10 µM was in the range of 10 to 100.

Take `Cc1cc(Nc2ncn(-c3cc(F)cc(F)c3)n2)cc(N2CCNCC2=O)c1` [Compound 93, 1-[3-[[1-(3,5-difluorophenyl)-1,2,4-triazol-3-yl]amino]-5-methyl-phenyl]piperazin-2-one]: the fold induction at 1 µM under setting [2] lay within 10 to 100. Moreover, the fold induction at 10 µM under setting [3] was 100 to 1000.

Take `Cc1cc(Nc2ncn(-c3cc(F)cc(F)n3)n2)cc(N2CCN(C3COC3)CC2)c1` [Compound 329, 1-(4,6-difluoro-2-pyridyl)-N-[3-methyl-5-[4-(oxetan-3-yl)piperazin-1-yl]phenyl]-1,2,4-triazol-3-amine]: under setting [2], the fold induction at 1 µM fell in the range of 1 to 10. Moreover, the fold induction at 10 µM under setting [3] is 10 to 100.

For the compound `CN1CCN(c2cc(Nc3ncn(-c4ccncn4)n3)cc(C(F)(F)F)c2)CC1` [Compound 96, N-[3-(4-methylpiperazin-1-yl)-5-(trifluoromethyl)phenyl]-1-pyrimidin-4-yl-1,2,4-triazol-3-amine], the fold induction at 1 µM under setting [2] was 100 to 1000. Besides, the fold induction at 10 µM under setting [3] is 100 to 1000.

Consider `COCC1(CNc2cc(C)cc(Nc3ncn(-c4cc(F)cc(F)c4)n3)c2)CC1` [Compound 937, N1-[1-(3,5-difluorophenyl)-1,2,4-triazol-3-yl]-N3-[[1-(methoxymethyl)cyclopropyl]methyl]-5-methyl-benzene-1,3-diamine], for which, under setting [1], the fold induction at 1 µM was 1 to 10 and the fold induction at 10 µM is no more than 1.

Regarding `Cc1cc(-n2cnc(Nc3cc(F)cc(N4CCN(C5COC5)CC4)c3)n2)ccc1F` [Compound 647, 1-(4-fluoro-3-methyl-phenyl)-N-[3-fluoro-5-[4-(oxetan-3-yl)piperazin-1-yl]phenyl]-1,2,4-triazol-3-amine], under setting [4], the fold induction at 1 µM fell in the range of 1 to 10 and the fold induction at 10 µM was no more than 1.

Regarding `Cc1cc(NCCN2CCOCC2)cc(Nc2ncn(-c3cc(F)cc(F)c3)n2)c1` [Compound 858, N1-[1-(3,5-difluorophenyl)-1,2,4-triazol-3-yl]-5-methyl-N3-(2-morpholinoethyl)benzene-1,3-diamine], under setting [1], the fold induction at 1 µM was in the range of 10 to 100 and the fold induction at 10 µM is no more than 1.

Take `FC(F)c1cc(Nc2ncn(-c3cccnc3)n2)cc(N2CCN(C3COC3)CC2)c1` [Compound 209, N-[3-(difluoromethyl)-5-[4-(oxetan-3-yl)piperazin-1-yl]phenyl]-1-(3-pyridyl)-1,2,4-triazol-3-amine]: the fold induction at 1 µM under setting [2] was in the range of 100 to 1000. Further, the fold induction at 10 µM under setting [3] was 100 to 1000.

Turning to `Fc1cc(-n2cnc(Nc3cc(C(F)F)cc(N4CCN(C5CC5)CC4)c3)n2)ccn1` [Compound 153, N-[3-(4-cyclopropylpiperazin-1-yl)-5-(difluoromethyl)phenyl]-1-(2-fluoro-4-pyridyl)-1,2,4-triazol-3-amine], under setting [2], the fold induction at 1 µM lay within 100 to 1000. The fold induction at 10 µM under setting [3] is 10 to 100.

Consider `CCC1CN(c2cc(C)cc(Nc3ncn(-c4cc(F)cc(F)c4)n3)c2)CCN1CC(C)O` (stereo not drawn) [Compound 1056, 1-[4-[3-[[1-(3,5-difluorophenyl)-1,2,4-triazol-3-yl]amino]-5-methyl-phenyl]-2-ethyl-piperazin-1-yl]propan-2-ol], for which, under setting [1], the fold induction at 1 µM lay in the range of 1 to 10 and the fold induction at 10 µM is no more than 1.

For `Cc1cc(Nc2ncn(-c3cccc(C(F)(F)F)c3)n2)cc(N2CCC(N3CCOCC3)CC2)c1` [Compound 854, N-[3-methyl-5-(4-morpholino-1-piperidyl)phenyl]-1-[3-(trifluoromethyl)phenyl]-1,2,4-triazol-3-amine], under setting [1], the fold induction at 1 µM is 100 to 1000 and the fold induction at 10 µM lay within 10 to 100.

For the compound `Clc1cccc(-n2cnc(Nc3cc(C4CC4)cc(N4CCN(C5COC5)CC4)c3)n2)c1` [Compound 55, 1-(3-chlorophenyl)-N-[3-cyclopropyl-5-[4-(oxetan-3-yl)piperazin-1-yl]phenyl]-1,2,4-triazol-3-amine], the fold induction at 1 µM under setting [2] lay in the range of 100 to 1000. Under setting [3], the fold induction at 10 µM is no more than 1.

Regarding `COC[C@H]1CCCN1c1cc(F)cc(-n2cnc(Nc3cc(C)cc(N4CCN(C5COC5)CC4)c3)n2)c1` [Compound 491, 1-[3-fluoro-5-[(2R)-2-(methoxymethyl)pyrrolidin-1-yl]phenyl]-N-[3-methyl-5-[4-(oxetan-3-yl)piperazin-1-yl]phenyl]-1,2,4-triazol-3-amine], under setting [4], the fold induction at 1 µM lay within 100 to 1000 and the fold induction at 10 µM is no more than 1.

`CN1CCN(c2cc(Nc3ncn(-c4ccncc4)n3)cc(C(F)(F)F)c2)CC1` [Compound 13, N-[3-(4-methylpiperazin-1-yl)-5-(trifluoromethyl)phenyl]-1-(4-pyridyl)-1,2,4-triazol-3-amine]: the fold induction at 1 µM under setting [2] fell in the range of 100 to 1000. Further, under setting [3], the fold induction at 10 µM was no more than 1.

In the case of `Cc1cc(Nc2ncn(-c3ccccc3)n2)cc(NC2CCN(C3COC3)C2)c1` (stereo not drawn) [Compound 309, 5-methyl-N1-[1-(oxetan-3-yl)pyrrolidin-3-yl]-N3-(1-phenyl-1,2,4-triazol-3-yl)benzene-1,3-diamine], the fold induction at 1 µM under setting [2] is 1000 to 10000. Further, the fold induction at 10 µM under setting [3] was no more than 1.

Regarding `Cc1cc(Nc2ncn(-c3cc(F)cc(F)c3)n2)cc(N(C)CCN2CCOCC2)c1` [Compound 738, N3-[1-(3,5-difluorophenyl)-1,2,4-triazol-3-yl]-N1,5-dimethyl-N1-(2-morpholinoethyl)benzene-1,3-diamine], under setting [4], the fold induction at 1 µM was in the range of 10 to 100 and the fold induction at 10 µM was no more than 1.

As to `Cc1cc(Nc2ncn(-c3ccccc3)n2)cc(OC2CCN(C3COC3)CC2)c1` [Compound 410, N-[3-methyl-5-[[1-(oxetan-3-yl)-4-piperidyl]oxy]phenyl]-1-phenyl-1,2,4-triazol-3-amine], under setting [4], the fold induction at 1 µM fell in the range of 10 to 100 and the fold induction at 10 µM was no more than 1.

`Fc1cc(Nc2ncn(-c3ccc(F)cc3F)n2)cc(N2CCCC2)c1` [Compound 497, 1-(2,4-difluorophenyl)-N-(3-fluoro-5-pyrrolidin-1-yl-phenyl)-1,2,4-triazol-3-amine]: under setting [4], the fold induction at 1 µM is no more than 1 and the fold induction at 10 µM was no more than 1.

For `Fc1cc(F)cc(-n2cnc(Nc3cc(C(F)F)cc(N4CC(N5CCOCC5)C4)c3)n2)c1` [Compound 804, N-[3-(difluoromethyl)-5-(3-morpholinoazetidin-1-yl)phenyl]-1-(3,5-difluorophenyl)-1,2,4-triazol-3-amine], under setting [1], the fold induction at 1 µM fell in the range of 10 to 100 and the fold induction at 10 µM was no more than 1.

For the compound `COC(=O)N1CCN(c2cc(C)cc(Nc3ncn(-c4cc(F)cc(F)c4)n3)c2)CC1` [Compound 422, methyl 4-[3-[[1-(3,5-difluorophenyl)-1,2,4-triazol-3-yl]amino]-5-methyl-phenyl]piperazine-1-carboxylate], under setting [4], the fold induction at 1 µM was no more than 1 and the fold induction at 10 µM is 100 to 1000.

Turning to `Fc1cc(-n2cnc(Nc3cc(C(F)F)cc(N4CCN(C5COC5)CC4)c3)n2)ccn1` [Compound 189, N-[3-(difluoromethyl)-5-[4-(oxetan-3-yl)piperazin-1-yl]phenyl]-1-(2-fluoro-4-pyridyl)-1,2,4-triazol-3-amine], the fold induction at 1 µM under setting [2] fell in the range of 100 to 1000. Also, under setting [3], the fold induction at 10 µM was no more than 1.

(Values after patent US10766869B2, “Triazoles for the treatment of demyelinating dieases” (Vertex Pharmaceuticals Incorporated, priority 2015, dated 2020).)
